Data as given in patent publication EP0051301A1, “1-Carboxy-azaalkyl-indolin-2-carboxylic acids, process for preparing them, pharmaceutical compositions containing them and their therapeutical use” (CIBA-GEIGY AG, priority 1980, dated 1982).
Structures can show the parent of a compound that is named as a salt.

How the values were obtained:
[1] = molecular target: T1, angiotensin converting enzyme = ACE (Oryctolagus cuniculus, UniProt P12822); experiment: In vitro ACE inhibition (ACEI), release of histidyl-leucine from hippuryl-histidyl-leucine, rabbit lung tissue preparation; format: biochemical, Kaninchen; conditions: incubation 30 min at 37°
T1 construct: Dieses Enzym wird aus Lungen von erwachsenen männlichen Kaninchen in Tris-Puffer; from tissue; host or cells: lung of adult male rabbits
T1 sequence (P12822 34-1310): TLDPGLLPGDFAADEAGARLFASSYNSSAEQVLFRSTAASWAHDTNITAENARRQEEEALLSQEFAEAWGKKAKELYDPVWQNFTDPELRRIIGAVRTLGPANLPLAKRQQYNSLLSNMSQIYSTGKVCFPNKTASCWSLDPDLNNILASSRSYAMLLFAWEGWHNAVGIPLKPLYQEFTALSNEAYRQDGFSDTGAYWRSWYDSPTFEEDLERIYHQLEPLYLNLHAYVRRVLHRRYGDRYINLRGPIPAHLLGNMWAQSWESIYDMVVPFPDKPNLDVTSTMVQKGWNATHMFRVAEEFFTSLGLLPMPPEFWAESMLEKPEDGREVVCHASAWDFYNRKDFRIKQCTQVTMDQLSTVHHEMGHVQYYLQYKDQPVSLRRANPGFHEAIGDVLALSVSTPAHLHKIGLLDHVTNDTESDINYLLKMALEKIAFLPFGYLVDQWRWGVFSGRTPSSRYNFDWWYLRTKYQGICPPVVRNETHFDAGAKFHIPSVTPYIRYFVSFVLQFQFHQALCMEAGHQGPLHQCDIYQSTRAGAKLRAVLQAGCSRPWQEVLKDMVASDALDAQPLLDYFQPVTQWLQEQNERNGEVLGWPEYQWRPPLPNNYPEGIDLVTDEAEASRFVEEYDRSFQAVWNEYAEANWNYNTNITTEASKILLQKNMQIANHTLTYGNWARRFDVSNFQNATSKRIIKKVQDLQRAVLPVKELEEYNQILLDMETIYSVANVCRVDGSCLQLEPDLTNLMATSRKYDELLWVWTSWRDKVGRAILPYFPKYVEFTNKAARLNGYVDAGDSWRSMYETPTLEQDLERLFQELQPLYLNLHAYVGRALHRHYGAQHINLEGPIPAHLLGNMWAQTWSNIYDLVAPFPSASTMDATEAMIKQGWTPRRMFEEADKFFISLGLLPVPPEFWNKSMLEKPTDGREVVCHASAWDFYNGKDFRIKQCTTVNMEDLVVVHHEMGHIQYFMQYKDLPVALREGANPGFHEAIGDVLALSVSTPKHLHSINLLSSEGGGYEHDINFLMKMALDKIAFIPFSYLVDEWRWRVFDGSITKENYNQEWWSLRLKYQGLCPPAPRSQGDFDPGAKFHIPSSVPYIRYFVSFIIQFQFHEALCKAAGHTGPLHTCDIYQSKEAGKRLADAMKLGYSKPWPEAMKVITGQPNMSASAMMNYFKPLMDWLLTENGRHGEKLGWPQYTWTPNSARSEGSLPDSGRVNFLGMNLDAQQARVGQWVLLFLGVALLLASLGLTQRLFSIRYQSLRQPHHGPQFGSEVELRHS
From the text: Die in vitro Hemmung des Enzyms, welches das Angiotensin umwandelt, kann bei den Verbindungen dieser Erfindung analog zu Biochim. Biophys. Acta 293, 451 (1973) nachgewiesen werden. Gemäss dieser Methode werden die genannten Verbindungen in ungefähr 1 mMol Konzentrationen in Phosphatpuffer, welcher von aussen mit Eis gekühlt wird, aufgelöst. Zu diesen Lösungen gibt man zuerst verschiedene µl-Mengen von 1 mMolarem Histidyl-leucin in Phosphatpuffer und dann 100 pl von 5mMolarem Hippuryl-histidyl-leucin in Phosphatpuffer und 50 pl des Angiotensin-umwandelnden Enzyms. Dieses Enzym wird aus Lungen von erwachsenen männlichen Kaninchen in Tris-Puffer, der Kalium-und Magnesiumchlorid und auch Rohrzucker enthält, frisch hergestellt. Die genannten Lösungen werden 30 Minuten bei 37° inkubiert und die weitere Reaktion wird durch Hinzufügen von 0,75 ml einer 0,6-normalen wässerigen Natriumhydroxidlösung gestoppt. Dann gibt man bei Zimmertemperatur 100 µl o-Phthalaldehyd und nach 10 Minuten 100 µl 6-normaler Chlorwasserstoffsäure dazu. Die Proben werden in einem Spektroghotometer bei 360 nm mit Wasser verglichen und ihre optische Dichte wird bestimmt. Diese Werte werden durch einen Konversionsfaktor einer Standard-Kurve angepasst, wobei man die während der genannten Inkubation von 30 Minuten gebildete Histidyl-leucin-Menge in Nanomolen erhält. Die Ergebnisse werden, um den IC50-Wert zu bestimmen, gegenüber den Wirkstoff-Konzentrationen graphisch als Kurve dargestellt. Dieser Wert bedeutet diejenige Wirkstoff-Konzentration, welche die Hälfte der Aktivität einer Kontrollprobe, die keinen Wirkstoff enthält, ergibt. Die genannten repräsentativen Verbindungen der vorliegenden Erfindung sind auch in diesem in vitro Testsystem, bis zu dem IC50-Wert von 39 nM und darunter, sehr wirksam.
Die Prüfung der Wirkung von Verbindungen ist gemäss den Methoden für die Auswertung der Hemmung des Enzyms, welches das Angiotensin umwandelt [angiotensin converting enzyme = ACE] durchgeführt worden. […]

[2] = test system: durch Angiotensin I (AI) hervorgerufenen Blutdrucksteigerung; experiment: Inhibition of the blood pressure rise caused by angiotensin I in anaesthetised normotensive rats; format: in vivo, Ratte; conditions: rat, mean value 30 min after administration
From the text: Die neuen Verbindungen zeigen auch eine Hemmwirkung auf das Ansprechen des Blutdrucks von normotensiven Ratten auf Angiotensin I. Das Enzym Renin verursacht unter normalen Verhältnissen eine spezifische Hydrolyse des zirkulierenden Renin-Substrat-Proteins. Diese Hydrolyse ergibt das Angiotensin I, welches durch die Einwirkung des genannten Enzyms, welches das Angiotensin umwandelt, in das stark gefässverengernde Angiotensin II weiter hydrolysiert wird. Durch Hemmung des genannten Enzyms wird die Entstehung des Angiotensins II aus I verhindert. Diese Hemmung dämpft daher jedes Ansprechen des Blutdrucks nach einer Angiotenin-I-Attacke.
Der entsprechende in vivo Test wird mit männlichen, normotensiven Ratten, welche mit 100-120 mg/kg intraperitoneal verabreichtem Natriumsalz des Aethyl-(l-methylpropyl)-malonylthioharnstoffs narkotisiert sind, vorgenommen. Eine femurale Arterie und eine Wadenvene werden mit je einer Hohlnadel für die direkte Messung des Blutdrucks und für die intravenöse Verabreichung des Angiotensins I und der erfindungsgemässen Verbindungen, versehen. Nach der Stabilisierung des basalen Blutdrucks, wird die Druckänderung nach drei, in 5-minutigen Intervallen durchgeführten, Reizungen mit 0,33 µg/kg Angiotensin I i.v., bestimmt. Druckänderungen werden auch 5, 10, 15, 30 und 60 Minuten nach entweder intravenöser oder peroraler Verabreichung (mit Magensonde) der zu prüfenden Verbindungen bestimmt. Die letztgenannten Druckänderungen werden mit den Anfangswerten verglichen. Jede festgestellte Abnahme vom Ansprechen des Blutdrucks ist ein Hinweis auf die Hemmung des Enzyms, welches das Angiotensin umwandelt. Diese Abnahme kann bis zu 80%, nach Dosen von 10 mg/kg i.v. oder 50 mg/kg p.o., betragen und bis 60 Minuten lang andauern.
In der in vivo Prüfungsmethode wird zuerst durch Verabreichung des Angiotensins 1 (AI) an das Versuchstier eine Blutdrucksteigerung hervorgerufen. Es wird dann die Hemmung der einzelnen Verbindungen auf diese Blutdrucksteigerung gemessen.
II. Methode der Hemmung der durch Angiotensin I (AI) hervorgerufenen Blutdrucksteigerung, durch intravenöse Verabreichung der Testverbindung (Z AI-Hemmung) In diesen Untersuchungen wird wie oben beschrieben, je ein Katheter in eine femurale Arterie und in eine Wadenvene der Ratte eingeführt.
Der arterielle Druck wurde von dem Arterienkatheter aus registriert, während man Angiotensin I (AI) und die einzelnen Testverbindungen durch den Venenkatheter injiziert hatte. Die Hemmung der durch Angiotensin I verursachten Blutdrucksteigerung ist in der Tabelle als Durchschnittswert 30 Minuten nach der Verabreichung von ausgewählten Dosen der jeweiligen Verbindung wiedergegeben. Dabei werden solche Dosierungen ausgewählt, so dass u.a. der ID50 (i.v.)-Wert ermittelt werden kann.

SMILES | IC50 [1] [nM] | % AI Hemmungen ([2]; i.v. Dosis 1.0 mg/kg) [%] | % AI Hemmungen ([2]; i.v. Dosis 0.1 mg/kg) [%] | % AI Hemmungen ([2]; i.v. Dosis 0.03 mg/kg) [%] | % AI Hemmungen ([2]; i.v. Dosis 0.06 mg/kg) [%]
C[C@H](NC(Cc1ccccc1)C(=O)O)C(=O)N1c2ccccc2C[C@H]1C(=O)O (stereo partly drawn) [Beispiel 7, 1-[N-(1-Carboxy-2-phenyl-äthyl)-S-alanyl]-indolin-2S-carbonsäure] | 30 | 80 |  |  | 
C[C@H](NC(CCc1ccccc1)C(=O)O)C(=O)N1c2ccccc2C[C@H]1C(=O)O (stereo partly drawn) [Beispiel 1, 1-[N-(1-Carboxy-3-phenylpropyl)-S-alanyl]-indolin-2S-carbonsäure] | 6 |  | 80 |  | 
CCOC(=O)[C@@H](CCc1ccccc1)N[C@@H](C)C(=O)N1c2ccccc2C[C@H]1C(=O)O [Beispiel 6, 1-[N-(lR-Carboäthoxy-3-phenyl-propyl)-S-alanyl]-indolin-2S-carbonsäure-hydrochlorid] | 8000 |  | 35 |  | 
CCOC(=O)[C@H](CCc1ccccc1)N[C@@H](C)C(=O)N1c2ccccc2C[C@H]1C(=O)O [Beispiel 4, 1-[N-(lS-Carboäthoxy-3-phenyl-propyl)-S-alanyl]-indolin-2S-carbonsäurehydrochlorid] |  |  | 95 | 33 | 80
